# Assay results reported in US20100028366A1, “SYNERGISTIC EFFECT BETWEEN A […] AND ANOTHER OXIDATIVE INDUCING SYSTEM FOR TREATING TUMORS” (priority 2005, published 2010).
# Legend:
# Assay type in all cases: cell-based, canine
# W&Wlis cells [1] = experiment: Analysis of the type of death by flow cytometry (annexin V-FITC/propidium iodide); parameters: Necrosis / Apoptosis: unit not given here; settings: Without GO
# Description: The annexin V-FITC and propidium iodide assay was performed in parallel by flow cytometry. The pattern of death of the system was analyzed when adding 5 mEU/ml of glucose oxidase and the combined therapy (5 mEU/ml of GO and 500 μg/ml of linamarin) at 48 hours, followed by the control of untreated cells and of the cells incubated with 500 μg/ml of linamarin at 96 hours. Furthermore, another group of cells was subjected to the same conditions except 10 mM of N-acetyl cysteine (NAC) were added. The cells treated with the combined therapy were subsequently studied at 48 hours in the absence and presence of 100 μM of Z-VAD-fmk, followed by the control of treatment of the cells with UV in the same conditions. Finally, the cells treated with the combined therapy were shown at 48 hours in the absence and presence of 300 μM of 1,5-isoquinolinediol (DIQ), observing that the pattern of death is not modified when PARP-1 is inhibited (FIG. 4).
# 10^5 W&Wlis cells were seeded in test tubes with a screw-on cap and flat side (Nunc). After 24 hours, different amounts of linamarin (50, 200 or 500 μg/ml) and glucose oxidase (5 mEU/ml) were added in the specified cases. In the appropriate assays, the medium was supplemented with N-acetyl cysteine (10 mM), 1,5-isoquinolinediol (300 μM) or Z-VAD-fmk (100 μM). […] They were centrifuged for 5 minutes at 1200 rpm and the cell precipitate was washed first with PBS and then with binding buffer (0.1 M Hepes/NaOH pH 7.4, 1.4 M NaCl and 25 mM CaCl2). The cells were again precipitated and resuspended in 100 μl of binding buffer supplemented with 5 μl of annexin V-FITC and 2.5 μg/ml of propidium iodide. The samples were incubated for 15 minutes in the dark. Data acquisition and analysis was carried out by means of a FACSCalibur flow cytometer (DB Biosciences) with the Cell Quest program.
# W&Wlis cells [2] = experiment: Structural modifications of the mitochondrion (pDsRed2-mito, confocal microscopy); settings: linamarin 500 μg/ml from 48 hours; glucose oxidase 5 mEU/ml; combination after 24 hours
# Description: For the purpose of studying the mitochondrial dynamics occurring as a result of the oxidative stress caused by the activity of the claimed system, W&Wlis cells were stably transfected with the plasmid pdsRed2-mito (Clontech) containing the gene of the one red fluorescent protein carried by a transport signal peptide to the mitochondrion. This allowed viewing the mitochondria of cells treated with linamarin and glucose oxidase by fluorescence microscopy. […] This effect starts to be observed 48 hours after treatment with linamarin (FIG. 1B) and becomes more pronounced after 72 hours, a slight swelling of the fragments (FIG. 1C) being observed.
# To study the structural modifications of the mitochondrion during therapy, the W&W and W&Wlis cells were transfected with the plasmid pDsRed2-mito (Clontech, BD Bioscience) containing the gene of a red fluorescent protein which is expressed exclusively in mitochondria. The transfection was performed similarly to the previous section and clones were selected by resistance to neomycin (0.75 and 1.5 mg/ml respectively). The cells from stable expression clones of the protein were seeded in multiwell plates on cover slips (2.5×10^4) and were treated with linamarin (50, 200 or 500 μg/ml) and glucose oxidase (5 mEU/ml). After the suitable incubation time for each experiment (24, 48 or 72 hours) elapsed, the cells were fixed with 4% paraformaldehyde. […]
# W&Wlis cells [3] = experiment: Measurement of intracellular ATP; settings: linamarin (500 μg/ml) and/or glucose oxidase (5 mEU/ml), over time, versus untreated cells
# Description: The levels of intracellular energy in the form of ATP decrease when a blockage of the mitochondrial electron transport chain occurs since it is the essential source of obtaining energy of the cells. […] This effect is due to the fact that the maximum H2O2 production by glucose oxidase occurs at short times because the cells have the ability of detoxifying the peroxide and due to the fact that glucose oxidase is inactivated over time by the serum proteins.
# 10^5 W&Wlis cells were seeded in test tubes with a screw-on cap and flat side (Nunc). After 24 hours, the medium was changed, adding linamarin (500 μg/ml) and glucose oxidase (5 mEU/ml) where appropriate. After 4, 8, 12, 24, 48 or 72 hours, the cells were centrifuged and processed following the instructions of the ATP Bioluminescence Assay Kit CLS II, of Roche Applied Science. The luminescence was analyzed with a Monolight 2010 luminometer (Analytical Luminescence Laboratory, San Diego) and expressed in relative light units (RLU).
# W&Wlis cells [4] = experiment: DNA content analysis by flow cytometry, labeling with propidium iodide; parameters: unit not given here; settings: Without GO
# [5] = 50 μg lin, 96 hours, NAC (10 mM)
# [6] = 200 μg lin, 96 hours, NAC (10 mM)
# [7] = 500 μg lin, 96 hours, NAC (10 mM)
# [8] = Table 4, 50 μg lin, 72 hours, Z-VAD-fmk (100 μM)
# [9] = Table 4, 50 μg lin, 72 hours, control (no Z-VAD-fmk)
# [10] = Table 4, 200 μg lin, 72 hours, Z-VAD-fmk (100 μM)
# [11] = Table 4, 200 μg lin, 72 hours, control (no Z-VAD-fmk)
# [12] = Table 4, 500 μg lin, 72 hours, Z-VAD-fmk (100 μM)
# [13] = Table 4, 500 μg lin, 72 hours, control (no Z-VAD-fmk)
compound,measurement,setting,value
"CC(C)(C#N)O[C@@H]1O[C@H](CO)[C@@H](O)[C@H](O)[C@H]1O [lin, 2-hydroxy-isobutyronitrile-β-D-glucopyranoside]",Apoptosis,"W&Wlis cells [1]; 50 μg lin, 48 h",3.71
same,Necrosis,"W&Wlis cells [1]; 50 μg lin, 48 h",2.96
same,Apoptosis,"W&Wlis cells [1]; 50 μg lin, 72 h",3.74
same,Necrosis,"W&Wlis cells [1]; 50 μg lin, 72 h",5.28
same,Apoptosis,"W&Wlis cells [1]; 50 μg lin, 96 h",20.83
same,Necrosis,"W&Wlis cells [1]; 50 μg lin, 96 h",11.33
same,Apoptosis,W&Wlis cells [1]; [5],6.44
same,Necrosis,W&Wlis cells [1]; [5],51.89
same,Apoptosis,"W&Wlis cells [1]; 200 μg lin, 48 h",3.84
same,Necrosis,"W&Wlis cells [1]; 200 μg lin, 48 h",5.68
same,Apoptosis,"W&Wlis cells [1]; 200 μg lin, 72 h",4.62
same,Necrosis,"W&Wlis cells [1]; 200 μg lin, 72 h",9.34
same,Apoptosis,"W&Wlis cells [1]; 200 μg lin, 96 h",14.31
same,Necrosis,"W&Wlis cells [1]; 200 μg lin, 96 h",45.15
same,Apoptosis,W&Wlis cells [1]; [6],21.58
same,Necrosis,W&Wlis cells [1]; [6],29.18
same,Apoptosis,"W&Wlis cells [1]; 500 μg lin, 48 h",5.17
same,Necrosis,"W&Wlis cells [1]; 500 μg lin, 48 h",5.54
same,Apoptosis,"W&Wlis cells [1]; 500 μg lin, 72 h",6.25
same,Necrosis,"W&Wlis cells [1]; 500 μg lin, 72 h",6.91
same,Apoptosis,"W&Wlis cells [1]; 500 μg lin, 96 h",18.99
same,Necrosis,"W&Wlis cells [1]; 500 μg lin, 96 h",24.98
same,Apoptosis,W&Wlis cells [1]; [7],18.53
same,Necrosis,W&Wlis cells [1]; [7],19.89
same,Apoptosis,W&Wlis cells [1]; [8],3.48
same,Necrosis,W&Wlis cells [1]; [8],15.01
same,Apoptosis,W&Wlis cells [1]; [9],1.36
same,Necrosis,W&Wlis cells [1]; [9],14.72
same,Apoptosis,W&Wlis cells [1]; [10],2.56
same,Necrosis,W&Wlis cells [1]; [10],13.07
same,Apoptosis,W&Wlis cells [1]; [11],3.30
same,Necrosis,W&Wlis cells [1]; [11],30.13
same,Apoptosis,W&Wlis cells [1]; [12],6.08
same,Necrosis,W&Wlis cells [1]; [12],13.24
same,Apoptosis,W&Wlis cells [1]; [13],9.02
same,Necrosis,W&Wlis cells [1]; [13],18.04
same,mitochondrial pattern,W&Wlis cells [2],dotted pattern
same,intracellular ATP levels,W&Wlis cells [3],progressive and rapid depletion of ATP which becomes almost complete after 48 hours
same,"DNA content by flow cytometry, labeling with propidium iodide","W&Wlis cells [4]; 50 μg lin, 48 hours",1.95
same,"DNA content by flow cytometry, labeling with propidium iodide","W&Wlis cells [4]; 50 μg lin, 72 hours",2.77
same,"DNA content by flow cytometry, labeling with propidium iodide","W&Wlis cells [4]; 200 μg lin, 48 hours",1.89
same,"DNA content by flow cytometry, labeling with propidium iodide","W&Wlis cells [4]; 200 μg lin, 72 hours",3.14
same,"DNA content by flow cytometry, labeling with propidium iodide","W&Wlis cells [4]; 500 μg lin, 48 hours",3.21
same,"DNA content by flow cytometry, labeling with propidium iodide","W&Wlis cells [4]; 500 μg lin, 72 hours",4.91
